For 1 compound, Kd results are on record in PMC5882964, “Aspermerodione, a novel fungal metabolite with an unusual 2,6-dioxabicyclo[2.2.1]heptane skeleton, as an inhibitor of penicillin-binding protein 2a” (Scientific Reports, 2018).

The target of the assay is T1, penicillin-binding protein 2a (PBP2a) (Staphylococcus aureus, UniProt Q7DHH4).
T1 construct: gene mecA; residues 23-668, pET28a, from mecA of Staphylococcus aureus ATCC 43300
As to the kind of experiment: microscale thermophoresis (MST) with labelled recombinant PBP2a. Background: Microscale thermophoresis detects binding through changes in fluorescence in a small temperature gradient.

Each structure is given as a SMILES string.

T1 sequence (Q7DHH4 entry or part of it): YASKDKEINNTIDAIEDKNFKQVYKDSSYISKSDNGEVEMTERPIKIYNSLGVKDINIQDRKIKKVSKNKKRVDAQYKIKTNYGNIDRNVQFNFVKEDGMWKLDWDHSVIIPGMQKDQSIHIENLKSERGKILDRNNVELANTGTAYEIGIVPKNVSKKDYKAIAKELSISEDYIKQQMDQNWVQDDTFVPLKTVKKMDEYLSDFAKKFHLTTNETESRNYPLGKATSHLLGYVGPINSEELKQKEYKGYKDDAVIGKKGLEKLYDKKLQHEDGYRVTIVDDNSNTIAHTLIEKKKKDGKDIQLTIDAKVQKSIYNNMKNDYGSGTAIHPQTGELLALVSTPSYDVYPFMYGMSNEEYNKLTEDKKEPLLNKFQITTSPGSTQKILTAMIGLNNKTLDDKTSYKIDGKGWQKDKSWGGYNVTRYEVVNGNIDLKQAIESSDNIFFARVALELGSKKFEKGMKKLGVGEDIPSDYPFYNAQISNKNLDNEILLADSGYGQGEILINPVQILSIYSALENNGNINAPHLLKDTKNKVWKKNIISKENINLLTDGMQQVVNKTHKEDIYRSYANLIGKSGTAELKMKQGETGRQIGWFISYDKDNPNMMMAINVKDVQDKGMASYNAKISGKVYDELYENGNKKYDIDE

`COC(=O)C1=C[C@]2(C)C[C@@]34CC[C@H]5C(C)(C)C(=O)C=C[C@]5(C)[C@]35OC[C@]14[C@](C)(CC2=O)O5` [compound 1, aspermerodione]: the dissociation constant Kd was 18.4 ± 1.29 µM.

A word on the Kd: it is the free concentration of one partner at which half of the binding sites on the other are occupied at equilibrium, for simple one-to-one binding.
